From patent US7186714B2, “Imidazo[1,2-α]pyridine derivatives for the prophylaxis and treatment of herpes viral infections” (SmithKline Beecham Corporation, priority 2001, dated 2007)

System: HSV-1
Assay: HSV infection of Vero 76 cells, viral DNA detected by hybridization capture with chemiluminescence
Format: cell-based
Details: Human alphaherpesvirus 1; HSV-1 in Vero 76 cells, MOI=0.001, incubated 40–48 hours with test compound
Protocol: Vero 76 cells were maintained in MEM with Earle's salts, L-glutamine, 8% FBS (Hyclone, A-1111-L) and 100 units/mL Penicillin-100 μg/mL Streptomycin. For assay conditions, FBS was reduced to 2%. Cells are seeded into 96-well tissue culture plates at a density of 5×10^4 cells/well after being incubated for 45 min at 37° C. in the presence of HSV-1 or HSV-2 (MOI=0.001). Test compounds are added to the wells and the plates are incubated at 37° C. for 40–48 hours. Cell lysates are prepared as follows: media was removed and replaced with 150 μL/well 0.2 N NaOH with 1% Igepal CA 630 or NP-40. Plates were incubated up to 14 days at room temperature in a humidified chamber to prevent evaporation.
For the detection probe, a gel-purified, digoxigenin-labeled, 710-bp PCR fragment of the HSV UL-15 sequence was utilized. PCR conditions included 0.5 μM primers, 180 μM dTTP, 20 μM dUTP-digoxigenin (Boehringer Mannheim 1558706), 200 μM each of dATP, dCTP, and dGTP, 1×PCR Buffer II (Perkin Elmer), 2.5 mM MgCl2, 0.025 units/μL of AmpliTaq Gold polymerase (Perkin Elmer), and 5 ng of gel-purified HSV DNA per 100 μL Extension conditions were 10 min at 95° C., followed by 30 cycles of 95° C. for 1 min, 55° C. for 30 sec, and 72° C. for 2 min. The amplification was completed with a 10-min incubation at 72° C. Primers were selected to amplify a 728 bp probe spanning a section of the HSV1 UL15 open reading frame (nucleotides 249–977). Single-stranded transcripts were purified with Promega M13 Wizard kits. The final product was mixed 1:1 with a mixture of 6 M GuSCN, 100 mM EDTA and 200 μg/mL herring sperm DNA and stored at 4° C.
The capture DNA plasmid (HSV UL13 region in pUC) was linearized by cutting with XbaI, denatured for 15 min at 95° C. and diluted immediately into Reacti-Bind DNA Coating Solution (Pierce, 17250, diluted 1:1 with TE buffer, pH 8) at 1 ng/μL 75 μL/well were added to Corning (#3922 or 9690) white 96-well plates and incubated at room temperature for at least 4 hrs before washing twice with 300 μL/well 0.2×SSC/0.05% Tween-20 (SSC/T buffer). The plates were then incubated overnight at room temperature with 150 μL/well 0.2 N NaOH, 1% IGEPAL and 10 μg/mL herring sperm DNA.
Twenty-seven (27) μL of cell lysate was combined with 45 μL of hybridization solution (final concentration: 3M GuSCN, 50 mM EDTA, 100 μg/ml salmon sperm DNA, 5×Denhardt's solution, 0.25×APE, and 5 ng of the digoxigenin-labeled detection probe). APE is 1.5 M NH4-acetate, 0.15 M ammonium phosphate monobasic, and 5 mM EDTA adjusted to pH 6.0. Mineral oil (50 μL) was added to prevent evaporation. The hybridization plates were incubated at 95° C. for 10 minutes to denature the DNA, then incubated at 42° C. overnight. The wells were washed 6× with 300 μL/well SSC/T buffer then incubated with 75 μL/well anti-digoxigenin-HRP-conjugated antibody (Boehringer Mannheim 1207733, 1:5000 in TE) for 30 min at room temperature. The wells were washed 6× with 300 μL/well with PBS/0.05% Tween-20 before 75 μL/well SuperSignal LBA substrate (Pierce) was added. The plates were incubated at room temperature for 30 minutes and chemiluminescence was measured in a Wallac Victor reader.

SMILES	IC50
O=[N+]([O-])c1cccc(-c2nc3c(N4CCOCC4)cccn3c2-c2ccnc(NC3CCCC3)n2)c1 [Example 31, N-Cyclopentyl-4-[8-(4-morpholinyl)-2-(3-nitrophenyl)imidazo[1,2-α]pyridin-3-yl]-2-pyrimidinamine]	1200 nM
Nc1cccc(-c2nc3c(Cl)cccn3c2-c2ccnc(NC3CCCC3)n2)c1 [Example 32, 4-[2-(3-Aminophenyl)-8-chloroimidazo[1,2-α]pyridin-3-yl]-N-cyclopentyl-2-pyrimidinamine]	3300 nM
c1cc(NCC2CC2)cc(-c2nc3c(NC4CCCC4)cccn3c2-c2ccnc(NC3CCCC3)n2)c1 [Example 34, N-Cyclopentyl-3-[2-(cyclopentylamino)-4-pyrimidinyl]-2-{3-[(cyclopropylmethyl)amino]phenyl}imidazo[1,2-α]pyridin-8-amine]	1500 nM
N#Cc1cccc(-c2nc3c(Cl)cccn3c2-c2ccnc(NC3CCCC3)n2)c1 [Example 36, 3-{8-Chloro-3-[2-(cyclopentylamino)-4-pyrimidinyl]imidazo[1,2-α]pyridin-2-yl}benzonitrile]	650 nM
Fc1ccc(-c2nc3c(Br)cc(Br)cn3c2-c2ccnc(NC3CCCC3)n2)cc1 [Example 40, N-Cyclopentyl-4-[6,8-dibromo-2-(4-fluorophenyl)imidazo[1,2-a]pyridin-3-yl]-2-pyrimidinamine]	790 nM
Fc1ccc(-c2nc3c(NC4CCCC4)cc(Br)cn3c2-c2ccnc(NC3CCCC3)n2)cc1 [Example 41, N-{4-[6-Bromo-8-(cyclopentylamino)-2-(4-fluorophenyl)imidazo[1,2-a]pyridin-3-yl]-2-pyrimidinyl}-N-cyclopentylamine]	180 nM
CCCCNc1cc(Br)cn2c(-c3ccnc(NC4CCCC4)n3)c(-c3ccc(F)cc3)nc12 [Example 42, 6-Bromo-N-butyl-3-[2-(cyclopentylamino)-4-pyrimidinyl]-2-(4-fluorophenyl)imidazo[1,2-a]pyridin-8-amine]	290 nM
Fc1ccc(-c2nc3c(N4CCOCC4)cc(N4CCOCC4)cn3c2-c2ccnc(NC3CCCC3)n2)cc1 [Example 43, N-Cyclopentyl-4-[2-(4-fluorophenyl)-6,8-di(4-morpholinyl)imidazo[1,2-a]pyridin-3-yl]-2-pyrimidinamine]	470 nM
Fc1ccc(-c2nc3ccc(Br)cn3c2-c2ccnc(NC3CCCC3)n2)cc1 [Example 47, N-{4-[6-Bromo-2-(4-fluorophenyl)imidazo[1,2-a]pyridin-3-yl]-2-pyrimidinyl}-N-cyclopentylamine]	4000 nM
Fc1ccc(-c2nc3ccc(NC4CCCC4)cn3c2-c2ccnc(NC3CCCC3)n2)cc1 [Example 48, N-Cyclopentyl-3-[2-(cyclopentylamino)-4-pyrimidinyl]-2-(4-fluorophenyl)imidazo[1,2-a]pyridin-6-amine]	2100 nM
Fc1ccc(-c2nc3ccccn3c2-c2ccnc(NC3CCCC3)n2)cc1 [Example 49, N-Cyclopentyl-4-[2-(4-fluorophenyl)imidazo[1,2-a]pyridin-3-yl]-2-pyrimidinamine]	3300 nM
Fc1ccc(-c2nc3ccc(N4CCOCC4)cn3c2-c2ccnc(NC3CCCC3)n2)cc1 [Example 50, N-Cyclopentyl-4-[2-(4-fluorophenyl)-6-(4-morpholinyl)imidazo[1,2-a]pyridin-3-yl]-2-pyrimidinamine]	180 nM
Fc1ccc(-c2nc3c(NC4CC4)cccn3c2-c2ccnc(NC3CCCC3)n2)cc1 [Example 51, 3-[2-(cyclopentylamino)-4-pyrimidinyl]-N-cyclopropyl-2-(4-fluorophenyl)imidazo[1,2-a]pyridin-8-amine]	510 nM
C=CCOc1ccc(-c2nc3c(NC4CCCC4)cccn3c2-c2ccnc(NC3CCCC3)n2)cc1 [Example 52, 2-[4-(Allyloxy)phenyl]-N-cyclopentyl-3-[2-(cyclopentylamino)-4-pyrimidinyl]imidazo[1,2-a]pyridin-8-amine]	620 nM
Fc1ccc(-c2nc3c(NC4CCCC4)cc(C(F)(F)F)cn3c2-c2ccnc(NC3CCCC3)n2)cc1 [Example 54, N-Cyclopentyl-3-[2-(cyclopentylamino)-4-pyrimidinyl]-2-(4-fluorophenyl)-6-(trifluoromethyl)imidazo[1,2-a]pyridin-8-amine]	840 nM
O=C(O)c1cccc(-c2nc3c(NC4CCCC4)cccn3c2-c2ccnc(NC3CCCC3)n2)c1 [Example 55, 3-{8-(Cyclopentylamino)-3-[2-(cyclopentylamino)pyrimidin-4-yl]imidazo[1,2-a]pyridin-2-yl}benzoic acid]	7000 nM

The remaining molecules from weak to strong by IC50, led by results:

IC50	SMILES
2900 nM	CCCCNc1cccn2c(-c3ccnc(NC4CCCC4)n3)c(-c3cccc(N=[N+]=[N-])c3)nc12 [Example 56, 2-(3-Azidophenyl)-N-butyl-3-[2-(cyclopentylamino)pyrimidin-4-yl]imidazo[1,2-a]pyridin-8-amine]
1600 nM	Nc1cccc(-c2nc3c(NC4CCCC4)cccn3c2-c2ccnc(NC3CCCC3)n2)c1 [Example 33, 2-(3-Aminophenyl)-N-cyclopentyl-3-[2-(cyclopentylamino)-4-pyrimidinyl]imidazo[1,2-α]pyridin-8-amine]
1500 nM	Cc1cccn2c(-c3ccnc(NC4CCCC4)n3)c(-c3ccc(F)cc3)nc12 [Example 46, N-Cyclopentyl-4-[2-(4-fluorophenyl)-8-methylimidazo[1,2-a]pyridin-3-yl]-2-pyrimidinamine]
1460 nM	c1cc(-c2nc3c(NC4CCCC4)cccn3c2-c2ccnc(NC3CCCC3)n2)cc(N(CC2CC2)CC2CC2)c1 [Example 35, 2-{3-[Bis(cyclopropylmethyl)amino]phenyl}-N-cyclopentyl-3-[2-(cyclopentylamino)-4-pyrimidinyl]imidazo[1,2-α]pyridin-8-amine]
1400 nM	Fc1ccc(-c2nc3c(NC4CCCC4)cc(Cl)cn3c2-c2ccnc(NC3CCCC3)n2)cc1 [Example 39, N-{4-[6-Chloro-8-(cyclopentylamino)-2-(4-fluorophenyl)imidazo[1,2-α]pyridin-3-yl]-2-pyrimidinyl}-N-cyclopentylamine]
1200 nM	Cc1cc(Br)cn2c(-c3ccnc(NC4CCCC4)n3)c(-c3ccc(F)cc3)nc12 [Example 44, N-{4-[6-Bromo-2-(4-fluorophenyl)-8-methylimidazo[1,2-a]pyridin-3-yl]-2-pyrimidinyl}-N-cyclopentylamine]
970 nM	Fc1ccc(-c2nc3c(OCc4ccccc4)cccn3c2-c2ccnc(NC3CCCC3)n2)cc1 [Example 57, 4-[8-(Benzyloxy)-2-(4-fluorophenyl)imidazo[1,2-a]pyridin-3-yl]-N-cyclopentylpyrimidin-2-amine]
950 nM	Fc1ccc(-c2nc3c(Cl)cc(Cl)cn3c2-c2ccnc(NC3CCCC3)n2)cc1 [Example 38, N-Cyclopentyl-4-[6,8-dichloro-2-(4-fluorophenyl)imidazo[1,2-α]pyridin-3-yl]-2-pyrimidinamine]
200 nM	c1cc(NC2CCCC2)c2nc(-c3ccc(OCC4CC4)cc3)c(-c3ccnc(NC4CCCC4)n3)n2c1 [Example 53, N-Cyclopentyl-3-[2-(cyclopentylamino)-4-pyrimidinyl]-2-[4-(cyclopropylmethoxy)phenyl]imidazo[1,2-a]pyridin-8-amine]
200 nM	Oc1cccn2c(-c3ccnc(NC4CCCC4)n3)c(-c3ccc(F)cc3)nc12 [Example 58]
140 nM	Cc1cc(NC2CCCC2)cn2c(-c3ccnc(NC4CCCC4)n3)c(-c3ccc(F)cc3)nc12 [Example 45, N-Cyclopentyl-3-[2-(cyclopentylamino)-4-pyrimidinyl]-2-(4-fluorophenyl)-8-methylimidazo[1,2-a]pyridin-6-amine]
